Results: US5994342A, “3-(substituted methyl)-4-oxa-1-azabicyclo[3.2.0]heptan-7-one derivatives useful as antitumor agents” (priority 1994, dated 1999)
≈ marks a conversion by molar mass, not a printed value. Where a name gives a salt, the structure may show the parent alone. Read-outs that look alike come from different tables or passages of the source.

Key:
[1] = system: P388 (S) cells; assay: In vitro P388 cell cytotoxicity (microculture tetrazolium assay), sensitive line; assay type: cell-based; conditions: Mus musculus, 72 h, read-out: Cell Toxicity P388 (S) (TD50)
Experimental: (§1) In Vitro L1210 and P388 Cell Cytotoxicity Assay
(§2) Cells were counted using neubauer hemocytometer and seed in 96 well plates at 100 μl of 0.5×10^4 cells per ml. […] Control wells were identical except that the test compound was absent. These were cultured for three days. Results were assayed using the microculture tetrazolium assay briefly. 50 μl of MTT formazoan working solution (1:5 v/v in culture medium) was added to each well and cultures were incubated at 37° C. for 4 hrs. Culture plates were centrifuged at low speed for 5 minutes. All but 10-20 μl of culture medium supernatant was removed by slow aspiration and […] and read at OD540 on a multiscan spectrophotometer. Inhibition value of cell growth was calculated based on optical density using the following equation; [formula]
(§3) TD50 values were calculated from linear regression ines of the log-logit plot.

[2] = system: L-1210 (R) cells; assay: In vitro L1210 cell cytotoxicity (microculture tetrazolium assay), resistant line; assay type: cell-based; conditions: Mus musculus, L1210, 72 h, read-out: Cell Toxicity L-1210 (R) (TD50)
Experimental: as §1, §2, §3

[3] = system: L-1210 (S) cells; assay: In vitro L1210 cell cytotoxicity (microculture tetrazolium assay), sensitive line; assay type: cell-based; conditions: Mus musculus, L1210, 72 h, read-out: Cell Toxicity L-1210 (S) (TD50)
Experimental: as §1, §2, §3

[4] = system: P388 (R) cells; assay: In vitro P388 cell cytotoxicity (microculture tetrazolium assay), resistant line; assay type: cell-based; conditions: Mus musculus, read-out: Cell Toxicity P388 (R) (TD50)
Experimental: as §1, §2, §3

[5] = system: KB cells; assay: In vitro KB cell cytotoxicity assay (crystal violet); assay type: cell-based; conditions: Homo sapiens, 72 h, 3 days culture, read-out: KB Cell Cytotoxicity TD50
Summary of the method: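 Cells seeded at 3×10^4 cells/ml in Eagle's MEM with 10% calf serum, cultured one day, then exposed to compound for three days at 37° C, 5% CO2. Glutaraldehyde-fixed cells stained with 0.05% crystal violet, eluted and read at OD540; TD50 from linear regression of log-logit plot of growth inhibition.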

[6] = system: Sarcoma 180; assay: In vivo antitumor activity against Sarcoma 180; set-up: species or system male ICR mice; conditions: i.p., days 1, 5 and 9
Experimental: In Vivo Antitumor Activity Against Sarcoma 180
The compounds of general formula (I) were tested in vivo against Sarcoma 180 xenografted tumor to mice as illustrated herein after.
Sarcoma 180, 5×10^6 cells were inoculated by S.C. to male ICR mice (6 week old) on day 0. Drugs were administered on days 1, 5 and 9. Mice were killed and tumor weight was measured on day 12 after transplantation. The percentage inhibition of tumor growth was calculated from the mean tumor weight of the treated group compared with that of the control group. Number of mice used in each group was between 6 to 7.

[7] = system: antitumor activity; assay: Antitumor activity of clavam 1 in vitro; assay type: cell-based
[8] = system: antifungal activity; conditions: reported by Brown and Evans; cited from earlier work
[9] = Chemical stability; assay type: physicochemical
[10] = system: antitumor activity; assay: Antitumor activity of clavam 1 in vivo
[11] = Mus musculus, Sarcoma-180, ip, 288 h, 12.5 mg/kg/day, tumor s.c., tumor weight day 12, read-out: % Inhibition of tumor growth
[12] = L-1210 resistant, 3 days culture
[13] = L-1210 sensitive, 3 days culture
[14] = 72 h, P388 resistant, 3 days culture
[15] = Mus musculus, Sarcoma-180, ip, 288 h, 50 mg/kg/day, tumor s.c., tumor weight day 12, read-out: % Inhibition of tumor growth
[16] = Mus musculus, Sarcoma-180, ip, 288 h, 100 mg/kg/day, tumor s.c., tumor weight day 12, read-out: % Inhibition of tumor growth
[17] = Mus musculus, Sarcoma-180, ip, 288 h, 25 mg/kg/day, tumor s.c., tumor weight day 12, read-out: % Inhibition of tumor growth

| SMILES | IC50 [5] | Mortality in 12 days ([6]; 12.5 mg/kg/day) | inhibition in vivo at 12.5 mg/kg [6, 11] | Mortality in 12 days ([6]; 50 mg/kg/day) | Mortality in 12 days ([6]; 100 mg/kg/day) | inhibition in vivo at 50 mg/kg [6, 15] | inhibition in vivo at 100 mg/kg [6, 16] | Mortality in 12 days ([6]; 25 mg/kg/day) | inhibition in vivo at 25 mg/kg [6, 17] | further results |
| --- | --- | --- | --- | --- | --- | --- | --- | --- | --- | --- |
| COc1cccc2c1C(=O)c1c(O)c3c(c(O)c1C2=O)C[C@@](O)(C(=O)CO)C[C@@H]3O[C@H]1C[C@H](N)[C@H](O)[C@H](C)O1 [Adriamycin] |  |  |  |  |  |  |  |  |  | IC50 [1]: 0.003 µg/mL (≈ 0.00552 µM); IC50 [2]: 0.36 µg/mL (≈ 0.662 µM); IC50 [3]: 0.004 µg/mL (≈ 0.00736 µM); IC50 ([4]; P388, 72 h): 0.575 µg/mL (≈ 1.06 µM) |
| CC(=O)NC[C@@H]1CN2C(=O)C[C@H]2O1 (racemic) [Example 1, (3RS,5RS)-3-(N-Acetylaminomethyl)-4-oxa-1-azabicyclo[3.2.0]heptan-7-one] | 0.263 µg/mL (≈ 1.43 µM) | 0/6 | 71.4% |  |  |  |  |  |  | IC50 ([1]; P388 sensitive, 3 days culture): 0.103 µg/mL (≈ 0.559 µM); Mortality in 12 days ([6]; 3.1 mg/kg/day): 0/6; Mortality in 12 days ([6]; 6.25 mg/kg/day): 0/6; inhibition in vivo at 3.1 mg/kg ([6]; Mus musculus, Sarcoma-180, ip, 288 h, 3.1 mg/kg/day, tumor s.c., tumor weight day 12, read-out: % Inhibition of tumor growth): 33.9%; inhibition in vivo at 6.25 mg/kg ([6]; Mus musculus, Sarcoma-180, ip, 288 h, 6.25 mg/kg/day, tumor s.c., tumor weight day 12, read-out: % Inhibition of tumor growth): 49.3%; IC50 [2, 12]: 0.104 µg/mL (≈ 0.565 µM); IC50 [3, 13]: 0.103 µg/mL (≈ 0.559 µM); IC50 [4, 14]: 0.074 µg/mL (≈ 0.402 µM) |
| CC[C@]1(O)C[C@H]2CN(CCc3c([nH]c4ccccc34)[C@@](C(=O)OC)(c3cc4c(cc3OC)N(C=O)[C@H]3[C@@](O)(C(=O)OC)[C@H](OC(C)=O)[C@]5(CC)C=CCN6CC[C@]43[C@@H]65)C2)C1 [Vincristine] |  |  |  |  |  |  |  |  |  | IC50 [2]: 0.2 µg/mL (≈ 0.242 µM); IC50 [3]: 0.002 µg/mL (≈ 0.00242 µM); IC50 ([4]; P388, 72 h): 0.279 µg/mL (≈ 0.338 µM) |
| CC(C)[C@H](N)C(=O)N[C@@H](COCc1ccccc1)C(=O)OCC1CN2C(=O)CC2O1 (stereo partly drawn) [Example 74B, (3RS,5SR)-3-[L-2-N-(L-2-N-Amino-3-methylbutyryl)amino-3-benzyloxypropanoyloxymethyl]-4-oxa-1-azabicyclo[3.2.0]heptan-7-one hydrochloride] | 0.669 µg/mL |  |  | 0/6 | 1/6 | 49.9% | 84.1% |  |  |  |
| CC(=O)NC(COC(C)=O)C(=O)OC[C@H]1CN2C(=O)C[C@@H]2O1 (mixture of isomers) [Example 75B, (3RS,5SR)-3-(2-Acetamido-3-acetoxypropanoyl)oxymethyl-4-oxa-1-azabicyclo[3.2.0]heptan-7-one] | 0.567 µg/mL (≈ 1.8 µM) | 0/6 | 37.8% | 4/6 |  | 77.8% |  | 0/6 | 65.1% |  |
| O=C(NC[C@@H]1CN2C(=O)C[C@H]2O1)c1ccccc1 (racemic) [Example 23, (3RS,5RS)-3-(N-Benzoylaminomethyl)-4-oxa-1-azabicyclo[3.2.0]heptan-7-one] | 0.088 µg/mL (≈ 0.357 µM) |  |  |  | 0/6 |  | 27.8% |  |  |  |
| CC(C)C(N)C(=O)NC(C(=O)O)C(O)C1CN2C(=O)CC2O1 (centres unmarked) [Example G0069A] |  |  |  |  |  |  |  |  |  | IC50 ([1]; P388 sensitive, 3 days culture): 1.02 µg/mL (≈ 3.23 µM); IC50 [2, 12]: 1.87 µg/mL (≈ 5.93 µM); IC50 [3, 13]: 2.17 µg/mL (≈ 6.88 µM); IC50 [4, 14]: 0.751 µg/mL (≈ 2.38 µM) |
| N[C@@H](Cc1ccccc1)C(=O)NCC1CN2C(=O)CC2O1 (stereo partly drawn) [Example 63B, (3RS,5RS)-3-N-(L-2-Amino-3-phenylpropanoyl)aminomethyl-4-oxa-1-azabicyclo[3.2.0]heptan-7-one hydrochloride] | 0.573 µg/mL |  |  | 0/6 | 0/6 | 50.3% | 57.6% |  |  |  |
| O=C(CCl)NC[C@@H]1CN2C(=O)C[C@H]2O1 (racemic) [Example 8, (3RS,5RS)-3-(N-Chloroacetylaminomethyl)-4-oxa-1-azabicyclo[3.2.0]heptan-7-one] | 0.084 µg/mL (≈ 0.384 µM) |  |  |  |  |  |  |  |  | Mortality in 12 days ([6]; 8.8 mg/kg/day): 0/6; Mortality in 12 days ([6]; 17.5 mg/kg/day): 0/6; Mortality in 12 days ([6]; 35 mg/kg/day): 1/6; inhibition in vivo at 8.8 mg/kg ([6]; Mus musculus, Sarcoma-180, ip, 288 h, 8.8 mg/kg/day, tumor s.c., tumor weight day 12, read-out: % Inhibition of tumor growth): 39%; inhibition in vivo at 17.5 mg/kg ([6]; Mus musculus, Sarcoma-180, ip, 288 h, 17.5 mg/kg/day, tumor s.c., tumor weight day 12, read-out: % Inhibition of tumor growth): 51.3%; inhibition in vivo at 35 mg/kg ([6]; Mus musculus, Sarcoma-180, ip, 288 h, 35 mg/kg/day, tumor s.c., tumor weight day 12, read-out: % Inhibition of tumor growth): 64% |
| C[C@@H](N)C(=O)OC[C@H]1CN2C(=O)C[C@@H]2O1.Cl (mixture of isomers) [Example 51B, (3RS,5SR)-3-(D-2-Aminopropanoyl)oxymethyl-4-oxa-1-azabicyclo[3.2.0]heptan-7-one hydrochloride] | 0.867 µg/mL | 0/6 | 40.9% | 0/6 | 5/6 | 82.4% | 93.8% | 0/6 | 50.6% |  |
| O=C1C[C@@H]2O[C@@H](CO)CN12 [clavam 1, (3R,5S)-3-hydroxymethyl-4-oxa-1-azabicyclo[3.2.0]heptan-7-one] |  |  |  |  |  |  |  |  |  | antitumor activity in vitro [7]: excellent antitumor activity; antifungal activity [8]: exhibit antifungal activity; chemical stability [9]: chemically unstable; antitumor activity in vivo [10]: excellent antitumor activity |
| C[C@H](N)C(=O)OC[C@H]1CN2C(=O)C[C@@H]2O1.Cl (mixture of isomers) [Example 48B, (3RS,5SR)-3-(L-2-Aminopropanoyl)oxymethyl-4-oxa-1-azabicyclo[3.2.0]heptan-7-one hydrochloride] | 0.878 µg/mL | 0/6 | 44.9% | 2/6 |  | 77.3% |  | 0/6 | 66.8% |  |
| CC(C)[C@H](NC(=O)CN)C(=O)OCC1CN2C(=O)CC2O1 (stereo partly drawn) [Example 55B, (3RS,5SR)-3-[L-2-(N-Aminoacetyl)amino-3-methylbutyryl]oxymethyl-4-oxa-1-azabicyclo[3.2.0]heptan-7-one hydrochloride] | 0.522 µg/mL |  |  | 0/6 |  | 74.4% |  | 0/6 | 47.6% |  |
